{"source": "patent US20160300038A1", "about": "“METHODS OF N[…] DRUG CONCENTRATIONS IN URINE USING PATIENT […] DATA AND TESTING FOR POTENTIAL NON-[…] A CHRONIC DRUG TREATMENT REGIMEN” (Ameritox, Ltd., priority 2015, published 2016)", "experiment": "Urine drug testing (UDT): drug concentration of the primary metabolite (parent drug) in patient urine, e.g. LC/MSMS", "procedure": "Non-limiting examples for determining the amount of a drug in fluid of a subject include fluorescence polarization immunoassay (“FPIA,” Abbott Diagnostics), mass spectrometry (MS), gas chromatography-mass spectrometry (GC-MS-MS), liquid chromatography-mass spectrometry (LC-MS-MS), liquid chromatography—exact mass mass spectrometry (LC/QTOF) and the like. […] In one embodiment, a raw level, amount, or concentration of a drug in urine of a subject is measured and reported as a ratio, percent, or in relationship to the amount of fluid. The amount of fluid may be expressed as a unit volume, for example, in L, mL, μL, pL, ounce, etc. In one embodiment, the raw amount of a drug in Urine of a subject may be expressed as an absolute level or value, for example, in g, mg, μg, ng, pg, etc.\nThen urine from the subject is tested. […] These values are within normal ranges so the data were processed.\nOf the patients considered in this sample 70% were females and 30% were males.", "data": [{"smiles": "COc1ccc2c3c1O[C@H]1C(=O)CC[C@@]4(O)[C@@H](C2)N(C)CC[C@]314", "note": "[oxycodone]", "values": [{"measurement": "average urine drug concentration", "setting": "oxycodone model population, approximately 47,000 patient results, average daily dosage 36 mg", "value": 2120, "unit": "ng/m L"}]}, {"smiles": "Cc1nnc2n1-c1ccc(Cl)cc1C(c1ccccc1)=NC2", "note": "[alprazolam]", "values": [{"measurement": "average urine drug concentration", "setting": "Example 7, fifty randomly selected alprazolam patients, average daily dosage 2 mg", "value": 155, "unit": "ng/m L"}, {"measurement": "average urine drug concentration", "setting": "alprazolam model population, approximately 280,000 patient results, average daily dosage 3 mg", "value": 375, "unit": "ng/mL"}]}, {"smiles": "COc1ccc2c3c1O[C@H]1C(=O)CC[C@H]4[C@@H](C2)N(C)CC[C@]314", "note": "[hydrocodone]", "values": [{"measurement": "average urine drug concentration", "setting": "hydrocodone model population, approximately 100,000 patient results, average daily dosage 30 mg", "value": 1784, "unit": "ng/m L"}]}, {"smiles": "O=C1Nc2ccc(Cl)cc2C(c2ccccc2)=NC1O", "note": "(stereo not drawn) [oxazepam]", "values": [{"measurement": "average urine drug concentration", "setting": "Example 8, fifty patients prescribed diazepam or temazepam (oxazepam as metabolite), average daily dosage 17 mg", "value": 1096, "unit": "ng/m L"}, {"measurement": "average oxazepam urine drug concentration", "setting": "oxazepam model population, approximately 207,000 patient results, prescribed diazepam and temazepam, average daily dosage 23 mg", "value": 1819, "unit": "ng/m L"}]}]}
